These results are taken from patent publication US8153767B2 (priority 2006, dated 2012).

As usually defined, the IC50 is the concentration needed to halve the response being measured. A high value points to weaker potency.

Values after ≈ are worked out from the molar mass of the structure shown.

In assay [1] the test system is monoclonal antibody useful for detecting all aflatoxins (JP-A 4-360695). As to conditions: cited from earlier work.
Assay [2] concerns mouse antiserum (aflatoxin B1 hapten immunogen).
Assay [3] deals with rabbit antiserum (aflatoxin B1 hapten immunogen).
Assay [4] relates to antibody AF-1 (JP-A 63-219394). The following applies: cited from earlier work.

Take `COc1cc2c(c3oc(=O)c4c(c13)CCC4=O)C1CCOC1O2` (stereo not drawn) [Aflatoxin B2]: the “crossreactivities in terms of IC50” value in assay [1] was 2.1 ng/mL. The IC50 turned out to be 1.5 ng/mL (≈ 4.77 nM) in assay [2] and 1.7 ng/mL (≈ 5.41 nM) in assay [3].

Take `COc1cc2c(c3oc(=O)c4c(c13)CCC4=O)C1(O)C=COC1O2` (stereo not drawn) [Aflatoxin M1]: the IC50 was 11 ng/mL (≈ 33.5 nM) in assay [2] and 14 ng/mL (≈ 42.6 nM) in assay [3].

Take `COc1cc2c(c3oc(=O)c4c(c13)CCOC4=O)C1CCOC1O2` (stereo not drawn) [Aflatoxin G2]: the “crossreactivities in terms of IC50” value in assay [1] was 5.2 ng/mL. For the same compound, the IC50 in assay [2] came out at 16 ng/mL (≈ 48.4 nM); in assay [3], 18 ng/mL (≈ 54.5 nM).

Consider `COc1cc2c(c3oc(=O)c4c(c13)CCC4=O)C1C=COC1O2` (stereo not drawn) [Aflatoxin B1], for which the “crossreactivities in terms of IC50” value in assay [1] was 0.44 ng/mL. For the same compound, the IC50 in assay [2] and in assay [3] was 0.07 ng/mL (≈ 0.224 nM) throughout.

On to `COc1cc2c(c3oc(=O)c4c(c13)CCOC4=O)C1C=COC1O2` (stereo not drawn) [Aflatoxin G1], for which, in assay [1], the “crossreactivities in terms of IC50” value was 2.4 ng/mL. Also, the IC50 in assay [2] stood at 0.6 ng/mL (≈ 1.83 nM); in assay [3], 0.63 ng/mL (≈ 1.92 nM). For the same compound, the “ability to bind to G1 relative to its ability to bind to B1 or B2” value in assay [4] is given as 1/10.
